From ChEMBL document CHEMBL2062478, “Targeted kinase selectivity from kinase profiling data” (ACS Med Chem Lett, 2012) come the findings set out here.

SMILES strings stand for the structures.

Test [1] concerns the target Platelet-derived growth factor receptor alpha (Homo sapiens, UniProt P16234). The test is described as follows: Inhibition of PDGFRA.
Test [2] deals with Cyclin-dependent kinase 1 (Homo sapiens, UniProt P06493). The test can be described thus: Inhibition of CDC2.
Test [3] addresses Cell division cycle 7-related protein kinase (Homo sapiens, UniProt O00311). The test is described as follows: Inhibition of CDC7.
In test [4] the target is Tyrosine-protein kinase Lck (Homo sapiens, UniProt P06239). The test is described as follows: Inhibition of LCK.
The target of test [5] is Epidermal growth factor receptor (Homo sapiens, UniProt P00533). The test is described as follows: Inhibition of EGFR.
Chain of Epidermal growth factor receptor (P00533 whole entry): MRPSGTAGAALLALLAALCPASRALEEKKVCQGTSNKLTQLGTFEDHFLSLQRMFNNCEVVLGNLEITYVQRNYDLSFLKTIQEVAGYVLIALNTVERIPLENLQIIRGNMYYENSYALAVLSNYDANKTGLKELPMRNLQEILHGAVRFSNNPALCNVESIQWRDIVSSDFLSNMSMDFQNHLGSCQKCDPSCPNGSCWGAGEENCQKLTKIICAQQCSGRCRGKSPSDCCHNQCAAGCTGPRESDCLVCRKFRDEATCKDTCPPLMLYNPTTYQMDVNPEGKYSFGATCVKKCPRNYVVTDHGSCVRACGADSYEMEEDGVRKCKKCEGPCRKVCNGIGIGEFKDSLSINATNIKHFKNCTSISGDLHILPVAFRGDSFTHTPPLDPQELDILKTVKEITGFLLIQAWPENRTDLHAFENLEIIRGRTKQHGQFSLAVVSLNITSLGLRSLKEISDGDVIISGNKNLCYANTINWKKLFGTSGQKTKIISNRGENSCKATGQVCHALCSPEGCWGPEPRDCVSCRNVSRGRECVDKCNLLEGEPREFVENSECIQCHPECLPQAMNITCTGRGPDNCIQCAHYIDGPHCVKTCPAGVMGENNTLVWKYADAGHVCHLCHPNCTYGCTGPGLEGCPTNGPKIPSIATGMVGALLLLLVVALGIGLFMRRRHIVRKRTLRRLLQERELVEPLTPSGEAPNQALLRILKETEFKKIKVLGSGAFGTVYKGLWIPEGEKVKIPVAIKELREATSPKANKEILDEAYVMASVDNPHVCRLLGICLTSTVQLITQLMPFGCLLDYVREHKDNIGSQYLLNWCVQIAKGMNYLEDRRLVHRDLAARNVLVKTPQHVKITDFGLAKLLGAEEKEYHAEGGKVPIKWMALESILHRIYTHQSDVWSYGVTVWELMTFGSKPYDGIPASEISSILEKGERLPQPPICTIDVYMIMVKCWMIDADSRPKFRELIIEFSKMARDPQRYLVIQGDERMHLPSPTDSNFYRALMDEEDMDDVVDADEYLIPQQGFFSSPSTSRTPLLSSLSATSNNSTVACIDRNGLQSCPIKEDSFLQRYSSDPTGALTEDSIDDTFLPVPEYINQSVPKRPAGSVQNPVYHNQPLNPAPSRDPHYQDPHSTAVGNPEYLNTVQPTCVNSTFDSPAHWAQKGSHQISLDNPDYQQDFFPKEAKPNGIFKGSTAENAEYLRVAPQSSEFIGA

Chain of Cyclin-dependent kinase 1 (P06493 whole entry): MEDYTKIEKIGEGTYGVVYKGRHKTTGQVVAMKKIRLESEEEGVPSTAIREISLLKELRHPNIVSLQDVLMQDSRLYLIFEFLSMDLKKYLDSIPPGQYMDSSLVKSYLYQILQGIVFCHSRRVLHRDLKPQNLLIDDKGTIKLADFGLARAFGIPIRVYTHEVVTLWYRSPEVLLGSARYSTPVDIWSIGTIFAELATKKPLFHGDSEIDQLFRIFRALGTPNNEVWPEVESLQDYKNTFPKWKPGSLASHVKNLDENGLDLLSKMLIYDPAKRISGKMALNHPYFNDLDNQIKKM
Chain of Platelet-derived growth factor receptor alpha (P16234 whole entry): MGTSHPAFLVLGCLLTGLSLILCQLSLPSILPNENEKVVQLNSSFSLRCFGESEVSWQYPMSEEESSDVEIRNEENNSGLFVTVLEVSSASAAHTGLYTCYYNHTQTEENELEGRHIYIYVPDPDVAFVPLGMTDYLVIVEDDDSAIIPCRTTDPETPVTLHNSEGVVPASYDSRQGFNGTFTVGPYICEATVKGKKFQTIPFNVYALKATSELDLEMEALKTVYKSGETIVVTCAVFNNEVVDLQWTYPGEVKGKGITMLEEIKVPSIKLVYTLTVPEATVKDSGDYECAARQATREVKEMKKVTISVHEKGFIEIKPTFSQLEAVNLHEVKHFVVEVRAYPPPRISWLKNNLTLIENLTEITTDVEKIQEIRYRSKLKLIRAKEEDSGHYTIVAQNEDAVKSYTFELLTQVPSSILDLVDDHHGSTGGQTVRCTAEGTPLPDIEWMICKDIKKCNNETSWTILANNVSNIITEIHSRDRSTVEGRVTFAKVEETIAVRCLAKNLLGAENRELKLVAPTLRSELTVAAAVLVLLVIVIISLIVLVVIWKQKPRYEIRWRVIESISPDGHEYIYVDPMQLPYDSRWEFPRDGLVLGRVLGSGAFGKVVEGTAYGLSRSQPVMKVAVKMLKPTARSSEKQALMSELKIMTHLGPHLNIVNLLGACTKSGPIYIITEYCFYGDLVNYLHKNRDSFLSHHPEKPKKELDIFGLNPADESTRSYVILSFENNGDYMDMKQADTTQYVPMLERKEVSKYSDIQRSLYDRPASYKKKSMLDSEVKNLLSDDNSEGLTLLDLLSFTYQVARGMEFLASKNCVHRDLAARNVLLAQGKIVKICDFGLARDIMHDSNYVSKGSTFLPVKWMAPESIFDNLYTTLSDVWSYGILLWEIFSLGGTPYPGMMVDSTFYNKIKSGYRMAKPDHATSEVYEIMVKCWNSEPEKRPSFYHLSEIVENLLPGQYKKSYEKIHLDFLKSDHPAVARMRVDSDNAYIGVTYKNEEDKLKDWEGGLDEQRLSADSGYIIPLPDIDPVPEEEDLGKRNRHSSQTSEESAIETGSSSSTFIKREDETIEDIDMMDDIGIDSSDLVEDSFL
Chain of Cell division cycle 7-related protein kinase (O00311 whole entry): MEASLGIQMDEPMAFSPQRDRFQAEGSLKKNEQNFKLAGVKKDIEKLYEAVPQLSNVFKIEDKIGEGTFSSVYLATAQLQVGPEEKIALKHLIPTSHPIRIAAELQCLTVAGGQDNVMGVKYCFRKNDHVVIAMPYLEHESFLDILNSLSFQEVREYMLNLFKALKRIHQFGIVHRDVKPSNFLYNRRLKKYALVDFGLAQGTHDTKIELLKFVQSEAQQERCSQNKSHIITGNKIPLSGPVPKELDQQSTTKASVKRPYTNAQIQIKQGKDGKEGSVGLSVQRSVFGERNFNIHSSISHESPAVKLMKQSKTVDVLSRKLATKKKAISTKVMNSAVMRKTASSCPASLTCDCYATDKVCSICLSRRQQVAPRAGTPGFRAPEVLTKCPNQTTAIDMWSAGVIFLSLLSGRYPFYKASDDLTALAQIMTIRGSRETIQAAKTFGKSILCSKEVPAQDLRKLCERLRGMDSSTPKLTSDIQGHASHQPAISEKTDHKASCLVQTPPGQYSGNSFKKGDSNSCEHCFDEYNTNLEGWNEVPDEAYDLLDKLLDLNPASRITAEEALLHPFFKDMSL
Chain of Tyrosine-protein kinase Lck (P06239 whole entry): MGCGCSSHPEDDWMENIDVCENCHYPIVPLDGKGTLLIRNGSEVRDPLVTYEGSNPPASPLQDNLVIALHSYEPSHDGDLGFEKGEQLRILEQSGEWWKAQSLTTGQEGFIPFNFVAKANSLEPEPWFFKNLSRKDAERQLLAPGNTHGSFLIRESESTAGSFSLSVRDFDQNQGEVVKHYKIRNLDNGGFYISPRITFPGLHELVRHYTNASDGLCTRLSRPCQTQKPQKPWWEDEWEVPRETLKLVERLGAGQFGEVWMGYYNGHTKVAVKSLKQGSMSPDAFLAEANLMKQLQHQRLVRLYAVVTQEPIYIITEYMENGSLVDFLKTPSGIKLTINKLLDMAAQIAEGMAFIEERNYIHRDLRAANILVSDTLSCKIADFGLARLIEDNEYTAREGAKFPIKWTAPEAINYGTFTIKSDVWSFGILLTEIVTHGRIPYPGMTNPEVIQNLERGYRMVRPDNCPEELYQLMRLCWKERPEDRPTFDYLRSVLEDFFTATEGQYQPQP

One may read the Ki as the equilibrium dissociation constant of an inhibitor or competing ligand from its target. A lower Ki goes with higher affinity. Consider `CC(C)(C(N)=O)n1cc(-c2cnc(N)c3c(-c4ccc(NC(=O)Nc5cccc(F)c5)cc4)csc23)cn1`, for which the Ki in test [1] was more than 10000 nM. Consider `Cc1cccc(NC(=O)Nc2ccc(-c3csc4c(C#CC(C)(C)N)cnc(N)c34)cc2)c1`, for which the Ki in test [1] is more than 10000 nM. `O=C(Nc1n[nH]c2ccc(-c3cn(Cc4ccccc4)nn3)cc12)c1cccc(Cl)c1`: the Ki in test [2] was more than 10000 nM. With `C[C@@H](O)Cn1cc(-c2cnc(N)c3c(-c4ccc(NC(=O)Nc5cccc(F)c5)cc4)csc23)cn1`, the Ki in test [1] is more than 10000 nM. As for `O[C@H]1CC[C@H](Nc2nc(Cl)cc(-c3c[nH]c4ncccc34)n2)CC1`, the Ki in test [2] is 39.8 nM; in test [3], 0.158 nM.

On to `CN(C)[C@H]1CC[C@H](Nc2nc(Cl)cc(-c3c[nH]c4ncccc34)n2)CC1`, for which the Ki is more than 10000 nM in test [2] and 0.316 nM in test [3]. Consider `O=C(Cc1ccccc1)Nc1cc(-c2nc3sccn3c2-c2ccnc(Nc3ccc(N4CCOCC4)cc3)n2)ccc1Cl`, for which the Ki in test [4] is 79.4 nM; in test [5] it was more than 10000 nM.
